This experiment addresses T1, human Cav3.2 channels (Homo sapiens, UniProt O95180).
T1 construct: human Cav3.2 channel ORF (Open Reading Frame) gene; expressed in transfected cells; host or cells: HEK293 cells (ATCC No. CRL-1573), pcDNA3.1(+) plasmid
The experiment can be described thus: T-type calcium blocking action: intracellular calcium (Fluo-4 AM fluorescence) in HEK293 cells steadily expressing human Cav3.2 channels. Type of experiment: cell-based. As to conditions: HEK293 cells expressing human Cav3.2; KCl-stimulated calcium influx, Fluo-4 fluorescence; Tables 1 to 3. An outline of the steps:
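Fluo-4 AM-loaded stable HEK293 cells were preincubated 15 min at RT with compound (0.1% DMSO final) in choline-based buffer (pH 7.3). Gramicidin was added, then KCl-induced calcium influx was read at 485/510 nm for 10 s. Percent block came from peak rise over baseline, and IC50 from log-concentration plots.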
A general note: Calcium assays in cells follow changes in intracellular calcium, usually with a dye or a luminescent sensor.
T1 sequence (O95180 whole entry): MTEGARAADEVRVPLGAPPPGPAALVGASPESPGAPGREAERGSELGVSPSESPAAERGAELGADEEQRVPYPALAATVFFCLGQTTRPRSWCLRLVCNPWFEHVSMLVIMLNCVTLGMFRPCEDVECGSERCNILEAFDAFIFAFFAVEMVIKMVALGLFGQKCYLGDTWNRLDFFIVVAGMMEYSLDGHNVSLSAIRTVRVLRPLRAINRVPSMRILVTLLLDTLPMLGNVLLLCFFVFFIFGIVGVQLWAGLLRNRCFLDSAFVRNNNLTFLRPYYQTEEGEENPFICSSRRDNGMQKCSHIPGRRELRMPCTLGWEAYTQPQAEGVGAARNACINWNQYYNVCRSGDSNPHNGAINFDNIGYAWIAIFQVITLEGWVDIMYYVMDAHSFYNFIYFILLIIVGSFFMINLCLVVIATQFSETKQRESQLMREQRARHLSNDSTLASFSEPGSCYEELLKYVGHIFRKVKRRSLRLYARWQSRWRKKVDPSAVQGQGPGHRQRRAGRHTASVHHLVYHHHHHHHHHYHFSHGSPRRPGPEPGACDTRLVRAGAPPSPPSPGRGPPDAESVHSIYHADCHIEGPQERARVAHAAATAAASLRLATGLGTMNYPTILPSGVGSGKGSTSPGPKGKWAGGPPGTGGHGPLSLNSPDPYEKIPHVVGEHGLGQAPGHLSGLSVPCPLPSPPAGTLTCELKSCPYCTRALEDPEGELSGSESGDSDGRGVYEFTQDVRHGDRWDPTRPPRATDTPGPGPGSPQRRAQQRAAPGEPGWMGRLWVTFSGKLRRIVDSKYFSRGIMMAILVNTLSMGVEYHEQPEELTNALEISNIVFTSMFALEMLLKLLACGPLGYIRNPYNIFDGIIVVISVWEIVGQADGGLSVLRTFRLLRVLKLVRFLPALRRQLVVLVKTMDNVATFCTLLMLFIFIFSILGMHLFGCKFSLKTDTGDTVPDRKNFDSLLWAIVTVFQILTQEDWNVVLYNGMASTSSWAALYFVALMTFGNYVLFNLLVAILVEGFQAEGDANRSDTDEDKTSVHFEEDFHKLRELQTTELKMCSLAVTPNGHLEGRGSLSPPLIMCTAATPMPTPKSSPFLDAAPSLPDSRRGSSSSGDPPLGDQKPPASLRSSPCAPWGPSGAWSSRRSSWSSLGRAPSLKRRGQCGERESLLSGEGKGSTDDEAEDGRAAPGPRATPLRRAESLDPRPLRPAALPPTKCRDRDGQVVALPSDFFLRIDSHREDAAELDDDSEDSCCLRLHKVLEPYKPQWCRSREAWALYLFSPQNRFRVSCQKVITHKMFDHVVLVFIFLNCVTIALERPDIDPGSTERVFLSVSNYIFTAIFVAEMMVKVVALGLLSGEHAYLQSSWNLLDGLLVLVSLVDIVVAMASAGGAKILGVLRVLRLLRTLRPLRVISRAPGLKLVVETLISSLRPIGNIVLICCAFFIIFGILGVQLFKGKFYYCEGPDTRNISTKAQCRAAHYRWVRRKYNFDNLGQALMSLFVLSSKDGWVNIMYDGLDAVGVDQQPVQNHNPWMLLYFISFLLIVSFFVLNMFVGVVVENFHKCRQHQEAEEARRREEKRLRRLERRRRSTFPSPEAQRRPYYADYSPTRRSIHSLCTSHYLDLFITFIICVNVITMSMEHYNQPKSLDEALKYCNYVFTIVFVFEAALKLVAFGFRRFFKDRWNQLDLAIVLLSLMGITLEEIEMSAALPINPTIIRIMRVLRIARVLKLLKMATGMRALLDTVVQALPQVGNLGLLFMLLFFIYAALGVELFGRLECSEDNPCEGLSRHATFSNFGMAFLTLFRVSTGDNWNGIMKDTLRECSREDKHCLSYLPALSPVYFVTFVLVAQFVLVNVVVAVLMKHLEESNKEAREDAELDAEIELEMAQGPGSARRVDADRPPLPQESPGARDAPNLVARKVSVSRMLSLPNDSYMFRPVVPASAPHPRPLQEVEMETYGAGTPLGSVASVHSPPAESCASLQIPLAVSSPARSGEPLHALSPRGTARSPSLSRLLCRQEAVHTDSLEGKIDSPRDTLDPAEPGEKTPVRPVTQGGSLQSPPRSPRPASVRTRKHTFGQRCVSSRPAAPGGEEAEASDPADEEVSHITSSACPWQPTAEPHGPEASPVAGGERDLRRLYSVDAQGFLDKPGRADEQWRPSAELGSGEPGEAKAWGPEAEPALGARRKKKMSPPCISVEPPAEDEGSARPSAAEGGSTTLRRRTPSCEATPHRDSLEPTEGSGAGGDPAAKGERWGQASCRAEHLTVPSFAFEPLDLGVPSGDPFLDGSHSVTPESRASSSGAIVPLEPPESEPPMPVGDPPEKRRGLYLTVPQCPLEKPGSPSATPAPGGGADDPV
As for `[2H]C([2H])(C(=O)N[C@@H]1CCN(c2cncc(C(F)(F)F)c2)C1)c1ccc(C(F)(F)F)cc1` [Example 83, (R)-2-(4-(trifluoromethyl)phenyl)-N-(1-(5-(trifluoromethyl)pyridin-3-yl)pyrrolidin-3-yl)acetamide-2,2-d2], the IC50 (commonly the concentration at which inhibition is half-maximal) is 0.082 µM.
The same measure for `O=C(Cc1ccc(N2CCC(F)(F)C2)cc1)N[C@@H]1CCN(c2ccc(C(F)(F)F)nc2)C1` [Example 84, (R)-2-(4-(3,3-difluoropyrrolidin-1-yl)phenyl)-N-(1-(6-(trifluoromethyl)pyridin-3-yl)pyrrolidin-3-yl)acetamide]: 0.18 µM.
For `O=C(Cc1ccc2cc[nH]c2c1)N[C@@H]1CCN(c2ccc(C(F)(F)F)nc2)C1` [Example 85, (R)-2-(1H-indol-6-yl)-N-(1-(6-(trifluoromethyl)pyridin-3-yl)pyrrolidin-3-yl)acetamide], the IC50 was 0.11 µM.
With `C[C@@H]1CN(c2ccc(CC(=O)N[C@@H]3CCN(c4cncc(C(F)(F)F)c4)C3)cc2)C[C@H](C)O1` [Example 86, 2-(4-((2R,6S)-2,6-dimethylmorpholino)phenyl)-N—((R)-1-(5-(trifluoromethyl)pyridin-3-yl)pyrrolidin-3-yl) acetamide], the IC50 is 0.37 µM.
For the compound `O=C(Cc1ccc(N2CCCC2)cc1)N[C@@H]1CCN(c2cncc(C(F)(F)F)c2)C1` [Example 87, (R)-2-(4-(pyrrolidin-1-yl)phenyl)-N-(1-(5-(trifluoromethyl)pyridin-3-yl)pyrrolidin-3-yl)acetamide], the IC50 amounted to 0.0054 µM.
Consider `COCCN(C)c1ccc(CC(=O)N[C@@H]2CCN(c3cncc(C(F)(F)F)c3)C2)cc1` [Example 88, (R)-2-(4-((2-methoxyethyl)(methyl)amino)phenyl)-N-(1-(5-(trifluoromethyl)pyridin-3-yl)pyrrolidin-3-yl)acetamide], for which the IC50 came to 0.019 µM.
For `O=C(Cc1ccc(C(F)(F)F)cc1)NC1CN(c2cncc(C(F)(F)F)c2)C1` [Example 89, 2-(4-(Trifluoromethyl)phenyl)-N-(1-(5-(trifluoromethyl)pyridin-3-yl)azetidin-3-yl)acetamide], the IC50 stood at 0.43 µM.
Consider `O=C(Cc1ccc2cc[nH]c2c1)NC1CN(c2cncc(C(F)(F)F)c2)C1` [Example 90, 2-(1H-indol-6-yl)-N-(1-(5-(trifluoromethyl)pyridin-3-yl)azetidin-3-yl)acetamide], for which the half-maximal inhibitory concentration (IC50) worked out at 0.13 µM.
`Cn1ccc2ccc(CC(=O)N[C@@H]3CCN(c4cncc(C(F)(F)F)c4)C3)cc21` [Example 91, (R)-2-(1-methyl-1H-indol-6-yl)-N-(1-(5-(trifluoromethyl)pyridin-3-yl)pyrrolidin-3-yl)acetamide]: the IC50 is 0.032 µM.
Regarding `Cn1ccc2ccc(CC(=O)N[C@@H]3CCN(c4ccc(C(F)(F)F)nc4)C3)cc21` [Example 92, (R)-2-(1-methyl-1H-indol-6-yl)-N-(1-(6-(trifluoromethyl)pyridin-3-yl)pyrrolidin-3-yl)acetamide], the IC50 came out at 0.072 µM.
`CN1CCN(c2ccc(CC(=O)N[C@@H]3CCN(c4cncc(C(F)(F)F)c4)C3)cc2)CC1` [Example 93, (R)-2-(4-(4-methylpiperazin-1-yl)phenyl)-N-(1-(5-(trifluoromethyl)pyridin-3-yl)pyrrolidin-3-yl)acetamide]: the IC50 is 0.34 µM.
Under `O=C(Cc1ccc(N2CCNCC2)cc1)N[C@@H]1CCN(c2cncc(C(F)(F)F)c2)C1` [Example 94, (R)-2-(4-(piperazin-1-yl)phenyl)-N-(1-(5-(trifluoromethyl)pyridin-3-yl)pyrrolidin-3-yl)acetamide] stands 0.91 µM.
Under `CC(=O)N1CCN(c2ccc(CC(=O)N[C@@H]3CCN(c4cncc(C(F)(F)F)c4)C3)cc2)CC1` [Example 95, (R)-2-(4-(4-acetylpiperazin-1-yl)phenyl)-N-(1-(5-(trifluoromethyl)pyridin-3-yl)pyrrolidin-3-yl)acetamide] stands 0.23 µM; under `O=C(Cc1ccc(N2CCCCC2=O)cc1)N[C@@H]1CCN(c2cncc(C(F)(F)F)c2)C1` [Example 96, (R)-2-(4-(2-oxopiperidin-1-yl)phenyl)-N-(1-(5-(trifluoromethyl)pyridin-3-yl)pyrrolidin-3-yl)acetamide], 0.41 µM; under `O=C(Cc1nc2ccc(Cl)cc2o1)N[C@@H]1CCN(c2cncc(C(F)(F)F)c2)C1` [Example 97, (R)-2-(6-chlorobenzo[d]oxazol-2-yl)-N-(1-(5-(trifluoromethyl)pyridin-3-yl)pyrrolidin-3-yl)acetamide], 0.25 µM.
For the compound `O=C(Cc1nc2ccccc2o1)N[C@@H]1CCN(c2cncc(C(F)(F)F)c2)C1` [Example 98, (R)-2-(benzo[d]oxazol-2-yl)-N-(1-(5-(trifluoromethyl)pyridin-3-yl)pyrrolidin-3-yl)acetamide], the IC50 turned out to be 1.1 µM.
The same measure for `O=C(Cc1ccc(N2CCC3(CC2)OCCO3)cc1)N[C@@H]1CCN(c2cncc(C(F)(F)F)c2)C1` [Example 101, (R)-2-(4-(1,4-dioxa-8-azaspiro[4.5]decan-8-yl)phenyl)-N-(1-(5-(trifluoromethyl)pyridin-3-yl)pyrrolidin-3-yl)acetamide]: 0.1 µM; for `O=C1CCN(c2ccc(CC(=O)N[C@@H]3CCN(c4cncc(C(F)(F)F)c4)C3)cc2)CC1` [Example 102, (R)-2-(4-(4-oxopiperidin-1-yl)phenyl)-N-(1-(5-(trifluoromethyl)pyridin-3-yl)pyrrolidin-3-yl)acetamide]: 0.15 µM.
Consider `O=C(Cc1ccc(C2CC2)cc1)NC1(CO)CCN(c2cncc(C(F)(F)F)c2)C1` (stereo not drawn) [Example 103, 2-(4-cyclopropylphenyl)-N-(3-(hydroxymethyl)-1-(5-(trifluoromethyl)pyridin-3-yl)pyrrolidin-3-yl)acetamide], for which the IC50 came out at 0.14 µM.
With `CC(=O)OCC1(NC(=O)Cc2ccc(C3CC3)cc2)CCN(c2cncc(C(F)(F)F)c2)C1` (stereo not drawn) [Example 104, (3-(2-(4-cyclopropylphenyl)acetamido)-1-(5-(trifluoromethyl)pyridin-3-yl)pyrrolidin-3-yl)methyl acetate], the IC50 was found to be 0.46 µM.
On to `COCC1(NC(=O)Cc2ccc(C3CC3)cc2)CCN(c2cncc(C(F)(F)F)c2)C1` (stereo not drawn) [Example 105, 2-(4-cyclopropylphenyl)-N-(3-(methoxymethyl)-1-(5-(trifluoromethyl)pyridin-3-yl)pyrrolidin-3-yl)acetamide], for which the IC50 amounted to 0.24 µM.
For `CC(C)c1ccc(CC(=O)NC2CCN(c3cncc(C(F)(F)F)c3)CC2)cc1` [Example 109, 2-(4-Isopropylphenyl)-N-(1-(5-(trifluoromethyl)pyridin-3-yl)piperidin-4-yl)acetamide], the IC50 stood at 0.24 µM.
In the case of `COc1ncc(N2CC[C@@H](NC(=O)Cc3ccc(C(C)C)cc3)C2)cc1C(F)(F)F` [Example 110, (R)-2-(4-isopropylphenyl)-N-(1-(6-methoxy-5-(trifluoromethyl)pyridin-3-yl)pyrrolidin-3-yl)acetamide], the IC50 was determined as 0.29 µM.
In the case of `CC(C)c1ccc(CC(=O)N[C@@H]2CCN(c3ncc(C(F)(F)F)cn3)C2)cc1` [Example 111, (R)-2-(4-isopropylphenyl)-N-(1-(5-(trifluoromethyl)pyrimidin-2-yl)pyrrolidin-3-yl)acetamide], the IC50 is 9.9 µM.
Under `CC(C)c1ccc(CC(=O)N[C@@H]2CCN(c3nc(C(F)(F)F)cs3)C2)cc1` [Example 112, (R)-2-(4-isopropylphenyl)-N-(1-(4-(trifluoromethyl)thiazol-2-yl)pyrrolidin-3-yl)acetamide] stands 0.11 µM; under `CC(C)c1ccc(CC(=O)N[C@@H]2CCN(c3ccc(C(F)(F)F)nc3)C2)cc1` [Example 113, (R)-2-(4-isopropylphenyl)-N-(1-(6-(trifluoromethyl)pyridin-3-yl)pyrrolidin-3-yl)acetamide], 0.1 µM; under `CC(C)c1ccc(CC(=O)N[C@H]2CCN(c3cncc(C(F)(F)F)c3)C2)cc1` [Example 114, (S)-2-(4-isopropylphenyl)-N-(1-(5-(trifluoromethyl)pyridin-3-yl)pyrrolidin-3-yl)acetamide], 1.2 µM.
With `O=C(Cc1ccc(OC(F)(F)F)cc1)N[C@@H]1CCN(c2cncc(C(F)(F)F)c2)C1` [Example 115, (R)-2-(4-(trifluoromethoxy)phenyl)-N-(1-(5-(trifluoromethyl)pyridin-3-yl)pyrrolidin-3-yl)acetamide], the IC50 came out at 0.091 µM.
The same measure for `O=C(Cc1ccc(OCC(F)(F)F)cc1)N[C@@H]1CCN(c2cncc(C(F)(F)F)c2)C1` [Example 116, (R)-2-(4-(2,2,2-trifluoroethoxy)phenyl)-N-(1-(5-(trifluoromethyl)pyridin-3-yl)pyrrolidin-3-yl)acetamide]: 0.04 µM; for `CC(C)c1ccc(CC(=O)NC2CN(c3cncc(C(F)(F)F)c3)C2)cc1` [Example 117, 2-(4-Isopropylphenyl)-N-(1-(5-(trifluoromethyl)pyridin-3-yl)azetidin-3-yl)acetamide]: 0.071 µM; for `CC(C)c1ccc(CC(=O)NC2CN(c3ccc(C(F)(F)F)nc3)C2)cc1` [Example 118, 2-(4-Isopropylphenyl)-N-(1-(6-(trifluoromethyl)pyridin-3-yl)azetidin-3-yl)acetamide]: 2.1 µM.
Under `O=C(Cc1cc(Cl)cc(Cl)c1)N[C@@H]1CCN(c2cncc(C(F)(F)F)c2)C1` [Example 119, (R)-2-(3,5-dichlorophenyl)-N-(1-(5-(trifluoromethyl)pyridin-3-yl)pyrrolidin-3-yl)acetamide] stands 2.3 µM.
On to `O=C(Cc1cc(F)cc(Cl)c1)N[C@@H]1CCN(c2cncc(C(F)(F)F)c2)C1` [Example 120, (R)-2-(3-chloro-5-fluorophenyl)-N-(1-(5-(trifluoromethyl)pyridin-3-yl)pyrrolidin-3-yl)acetamide], for which the IC50 came to 0.82 µM.

Values taken from patent US20220226299A1 (NIPPON CHEMIPHAR CO., LTD., priority 2019, published 2022).
